The values below come from patent US20250354125A1, “HIGH-[…]-TERM CULTURED E[…] WITH ANGIOGENESIS” (priority 2024, published 2025).

Ends that are not written are not given here.

Test [1] has as its system HUVEC Endothelial organoids. Kind of test: Organoid stimulation with IL-1β and TGF-β and treatment with PIEZO1 or ROCK inhibitor; EndMT and endothelial marker expression. Format: cell-based, human. To be noted: FIG. 14a/14b; for TAGLN expression / fibronectin expression: EndMT marker. On the procedure: (§1) HUVEC Endothelial organoids were seeded in 384-well U-bottom ULA plates (S-bio #MS-9384UZ, lot 20839306) and centrifuged at 1,000 rpm for 5 min (142 rcf, Thermo Scientific Sorvall ST16 centrifuge). Endothelial organoid seeding volume was 25 μL per well. The HUVEC organoid seeding solution consisted of 120,000 HUVEC cells/mL, 160 μg/mL Matrigel (Corning #356-231, 10.7 mg/mL), 10% FBS (GeminiBio #900-108) and 0.24% methylcellulose (Methocel, Sigma Aldrich #94378). A key procedure being to add cold Matrigel into warm media to induce gelling.

Test [2] deals with HUVEC Endothelial organoids. The experiment in a line: LPS and TNF-α stimulated endothelial organoid; E-selectin immunofluorescence and bright field imaging. The test is classed as cell-based, human. The procedure: as §1
Fixed HUVEC Organoids were washed with PBS and permeabilized with 0.1% Tween in PBS for 10 min at 4° C. Samples were incubated with Organoid washing buffer (OWB, 0.2% BSA/0.1% Triton-X-100 in PBS) to prevent non-specific binding for 15 min at 4° C. Samples were incubated with primary antibodies in OWB at 4° C. overnight. Primary antibodies include: SELE Rabbit pAb (ABclonal, #A2191, Lot 5500024697, 1:1,000 dilution), Human VE-Cadherin Antibody (R&D systems, #AF938, 1:40 dilution) and Mouse anti-CD34 antibody (Clone QBEND/10, Invitrogen #MA1-10202, 1:500 dilution). Samples were washed with OWB and incubated with secondary antibodies or Alexa Fluor 647 Phalloidin (Invitrogen, #A22287, Lot 2170291, 1:400 dilution) in OWB for 2 hours at room temperature (RT). Secondary antibodies include: Goat anti-Rabbit Alexa Fluor 647 (Invitrogen, #A-21244, Lot 2134003, 1:500 dilution), Donkey anti-rat Alexa Fluor 488 (1:2,000 dilution), Goat anti-mouse Alexa Fluor 488 (Thermo Fisher, #A-11001, 1:2,000 dilution) and Donkey anti-mouse Alexa Fluor 568 (Invitrogen #A10037, 1:1,000 dilution). Organoids were washed with PBS and incubated with DAPI in PBS for 30 min at RT and imaged using Spinning disk Confocal microscope (Nikon, CSU-W1) with 10×, 20× and 60× magnification. E-selectin, Integrin α6 and CD34 stained organoids were performed without permeabilization step, VE-Cadherin and Phalloidin stained organoids were performed with permeabilization step
There is currently a lot of research being conducted on endothelial cells in relation to inflammation. […]

Take `C[C@@H](N)[C@H]1CC[C@H](C(=O)Nc2ccncc2)CC1` [Y-27632]: in test [1], the TAGLN expression entry is recorded as “TAGLN expression remained unchanged”, the fibronectin expression result is “elevated fibronectin levels” and the PECAM1 expression result is on record as “increased PECAM1 expression”.

For “GsMTx4: PIEZO1 inhibitor (GCLEFWWKCNPNDDKCCRPKLKCSKLFKLCNFSF; ends and bridges not checked; cysteine pairing not given here; UniProt Q7YT39 47-80, looked up)”, in test [1], the TAGLN expression result was “did not alter TAGLN” and the fibronectin expression entry is listed as “decreased fibronectin expression”.

As to “IL-1β: cytokine used for organoid stimulation; its effect indicated an inflammatory response”, in test [1], the TAGLN expression entry is on record as “without affecting fibronectin or TAGLN levels”, the fibronectin expression result is “without affecting fibronectin” and the PECAM1 expression entry was “reduced PECAM1 expression”.

For the molecule TNF-α, the “changes in the bright field (BF)” value in test [2] (after 24 hours of treatment) was “no significant changes were observed”. Moreover, the “E-selectin signal on the surface of the organoids” value in test [2] (fluorescent staining after 24 hours of treatment, compared to the control group, FIG. 11) is recorded as “showed expression of the E-selectin signal”. Besides, in test [2] (fluorescent staining, FIG. 11), the “E-selectin fluorescence in relation to concentration” value is recorded as “increase in fluorescence proportional to their concentrations”.
